We go through 8 compounds from PubChem BioAssay (NCI).

Assay in all cases: NCI-60 cell line screen, 48 h
Assay [1] concerns CCRF-CEM leukemia.
In assay [2] the test system is HOP-62 NSCLC.
For assay [3], the system named is HOP-92 NSCLC.
For assay [4], the system named is HT29 colon.
Assay [5] deals with NCI-H226 lung.
Assay [6] deals with NCI-H460 lung.
Assay [7] has as its system OVCAR-5 ovarian.
The test system of assay [8] is PC-3 prostate.
The subject of assay [9] is SK-OV-3 ovarian.
In assay [10] the test system is SNB-75 CNS.
In assay [11] the test system is SR leukemia.
The test system of assay [12] is TK-10 renal.
For assay [13], the system named is SF-539 CNS.

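Briefly, cells in 96-well plates were exposed to five compound concentrations for 48 h, and endpoints were estimated by linear interpolation. Abbreviation: GI50, concentration required for 50% inhibition of growth. TGI: concentration producing complete growth inhibition.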

Consider `Cc1cn(C2CC(N)C(C(=O)NCC(=O)O)O2)c(=O)[nH]c1=O` (stereo not given), for which the TGI in assay [1], in assay [2], in [3], in assay [4], in assay [5] and in assay [6] was over 100 µM throughout. Also, the TGI in [7], in assay [8], in assay [9], in assay [10], in assay [11] and in assay [12] was over 100 µM each time.
Turning to `COc1ccc(-c2ccc(-c3ccc(C(=N)N)nc3)s2)cc1Cl`, the GI50 was 1.63 µM in assay [3]; 1.8 µM in [6]; 1.86 µM in assay [7]; 1.78 µM in assay [8]; 1.74 µM in assay [13]; 1.75 µM in assay [9]. In addition, in assay [10], the GI50 is 1.43 µM. In addition, the TGI turned out to be 3.41 µM in assay [3]; 3.36 µM in assay [6]; 3.32 µM in [7]; 3.49 µM in assay [8]; 3.17 µM in assay [13]; 3.36 µM in [9]. In assay [10], this compound returned a TGI of 2.8 µM.
On to `O=S(OC12CC3CC(CC(C3)C1)C2)c1cc(Cl)cc(Cl)c1OCc1ccccc1` (stereo not given), for which the TGI in assay [1], in assay [2], in assay [4], in assay [6], in assay [7] and in assay [13] was over 100 µM throughout. Moreover, the TGI in assay [9], in assay [10], in assay [11] and in assay [12] was over 100 µM throughout.
Consider `C=CCN1C(=O)/C(=C/c2ccco2)N=C1SC1OC(COC(C)=O)C(OC(C)=O)C(OC(C)=O)C1OC(C)=O` (stereo not given), for which the TGI in [2], in assay [3], in [5], in assay [6], in [7] and in assay [8] was over 100 µM each time. Moreover, the TGI in assay [13], in assay [9], in [10], in [11] and in assay [12] was over 100 µM each time.
For the compound `CC(=O)OCC1OC(OCCCCCCO)C(OC(C)=O)C(OC(C)=O)C1OC(C)=O` (stereo not given), the TGI in [1], in assay [2], in [3], in assay [4], in assay [5] and in [6] was over 100 µM throughout. Also, the TGI in [7], in assay [8], in [13], in assay [9], in [10] and in assay [11] was over 100 µM in each case. The compound also returned a TGI in assay [12] of over 100 µM.
As to `O=[N+]([O-])c1ccccc1S(=O)(=O)c1ccccc1`, the TGI in assay [1], in assay [2], in assay [3], in [4], in assay [5] and in assay [6] was over 100 µM each time. In addition, the TGI in assay [7], in assay [13], in assay [9], in [10], in [11] and in assay [12] was over 100 µM each time.
Regarding `Cc1ccc(NC(=O)C(Cc2c[nH]c3ccccc23)NC(=O)Oc2ccccc2)cc1C` (stereo not given), the TGI in [1], in assay [2], in assay [3], in [4], in assay [5] and in assay [6] was over 100 µM each time. In addition, the TGI in assay [7] is over 100 µM; in assay [8] it was over 100 µM; in [13], over 100 µM; in assay [9], over 100 µM; in assay [12], 25.5 µM.
Consider `CC1(C)C(=O)c2ccccc2OC1N1CCN(C2Oc3ccccc3C(=O)C2(C)C)CC1` (stereo not given), for which the TGI in [1], in assay [2], in [3], in [4], in assay [5] and in assay [6] was over 100 µM in each case. The TGI in assay [7], in assay [8], in assay [9], in assay [10], in assay [11] and in assay [12] was over 100 µM each time.
